Assays:
[1] = test system: polyvalent resistant (CH strain) houseflies; assay: whole plant or invertebrate; assay type: in vivo, housefly (CH strain); settings: Musca domestica, topical, 24 h, read-out: mortality, insecticide used without synergist
Experimental: The effect of O-(2-propynyl) oximes with Dimetilan and with GS 13798 was obtained from tests on polyvalent resistant (CH strain) houseflies that had been chilled and to the dorsal region of which was applied an acetone solution of synergist and insecticide at a ratio of two to one. Duplicate tests were performed using 10 four to five-day old female houseflies per test. After dosage, the flies were put in a plastic petri dish with cotton soaked in a sugar-water solution. These doses of insecticide used without synergist caused 10-40% mortality.
(§1) In Table IX, and in the tables following it, the doses of topically applied insecticides and of synergists unless otherwise noted are expressed as micrograms per fly (μg/fly).
The effect of compounds II-C, II-D and II-E with Dimetilan and GS 13798 was determined, following the procedure of Example 5, from tests on polyvalent resistant (CH strain) houseflies. These doses of insecticide used without synergist caused 10-40% mortality.
(§2) The synergistic effect with GS 13005 of compounds I-A, I-B, I-D, I-E, I-F, I-G and I-I was determined from topical application tests to IN/WHO strain, Rutgers A strain and polyvalent CH strain houseflies using the procedures of Example 5. The percent kills of the IN/WHO strain flies after 24 hours are shown in Table XXVIII; of the Rutgers A strain, in Table XXIX; and of the polyvalent CH strain, in Table XXX. The doses of insecticide alone to the CH strain files caused 10-40% mortality.
(§3) The synergistic effect with Diazinon and GS 13005 of various of the benzyl 2-propynyl ethers identified in Tables II and IIa was determined by topical application tests on IN/WHO strain, and Rutgers A strain and polyvalent, resistant, CH strain houseflies using the procedures of Example 5. The percent kills after 24 hours of IN/WHO strain flies are shown in Table XXXI; of Rutgers A strain flies, in Table XXXII; and of CH strain flies, in Table XXXIII. The doses of insecticide alone to the CH strain flies caused 10-40% mortality.
The synergistic effect with pyrethrum of various synergist compounds was determined by topical application tests on polyvalent, resistant CH strain houseflies following the procedure of Example 5. Application of the insecticide alone caused 10-40% mortality.

[2] = test system: IN/WHO strain house flies; assay: topical application test, percent kill after 24 hours, IN/WHO strain; assay type: in vivo, house fly (susceptible IN/WHO strain)
Experimental: as §1
The synergistic effect of O-(2-propynyl) oximes with mobam was determined from topical application tests on susceptible, female, IN/WHO strain house flies and from tests on resistant, female, Rutgers A strain house flies. The synergist and insecticide were dissolved in ACS Grade acetone in such quantities that a 1.0μ liter volume applied to the thorax of 3-to-5 day old CO2 -anesthetized female adult house flies contained the desired dosage. After being treated, the flies were confined, 10 to a plaster petri dish, with 3-5 dishes/treatment, and held for 24-hr. observation of mortality. Reconstituted skim milk on cotton dental wicks was provided during the holding period. The percent kills after 24 hours are shown in Table X for the IN/WHO strain and Table XI for the Rutgers A strain.
The synergistic effect of benzyl 2-propynyl ethers with mobam was determined from topical application tests on IN/WHO and Rutgers A strain houseflies, following the procedure of Example 5. The percent kills after 24 hours are shown in Table XIV for the IN/WHO strain and in Table XV for the Rutgers A strain.
The effects of varying the insecticide dose and the synergist-insecticide ratio are further illustrated, with synergist compounds II-D, II-E, II-F and Mobam insecticide, in Tables XVI, XVII and XVIII.
The synergistic effect on IN/WHO flies of synergist compound II-K with Dimetilan, pyrolan, Baygon and HRS 1422 is illustrated by the 24 hour percent mortality data in Tables XIX, XX and XXI.
The effect on IN/WHO flies of synergist compound IV-C, identified in Table IV, with mobam was determined by the topical application procedure of Example 5.
The synergistic effect with Diazinon of compounds I-B, I-D, I-F, I-G, I-H and I-I, identified in Tables I and Ia, was determined from topical application tests on IN/WHO strain houseflies and on Rutgers A strain houseflies by the procedure of Example 5. The percent kills after 24 hours are shown in Table XXV for the IN/WHO strain and Table XXVI for the Rutgers A strain.
as §2, §3
The synergist effect on IN/WHO flies of synergist compound II-K with Gardona and Bidrin is illustrated by the 24 hour percent mortality data in Tables XXXIV and XXXV.
The synergistic effect on IN/WHO strain flies and Rutgers A strain flies of compound IV-C with GS 13005 and with Diazinon was determined by the topical application procedure of Example 5. The percent kills of IN/WHO strain flies after 24 hours are shown in Tables XXXVI and XXXVII; the percent kills of Rutgers A strain flies are shown in Tables XXXVIII and XXXIX.

[3] = test system: mice; assay: acute toxicity of Dimetilan alone and of synergist alone (intraperitoneal); assay type: in vivo, Swiss albino white male mice; settings: for Lethality (number of mice dead): 48 hours; for Lethality (number of mice dead) / number of mice dead: of eight mice; for number of mice dead: synergist alone 1000 mg/kg ip, 72 hours
Experimental: To determine the acute toxicity of dimetilan alone, eight dosage levels of Dimetilan, ranging from 4 to 32 mg per kg wer applied to eight, Swiss, albino, white, male mice per dosage level. The mice weighed approximately 23 to 27 grams and were five to size weeks old. The Dimetilan was administered intraperitoneally in 0.1 ml of corn oil one hour after the administration of the same dose of corn oil alone.
To determine the acute toxicity of the synergist alone, various synergists were administered intraperitoneally at a dose of 1000 mg/kg to each of a group of eight mice. The number of animals dead at the end of 72 hours is reported in the left hand column of Table XXXXVI.

[4] = test system: mice; assay: synergism of acute toxicity of Dimetilan, GS 13005, Secobarbital and Methadone (intraperitoneal); assay type: in vivo, Swiss albino white male mice; settings: for number of mice dead: 48 hours
Outline: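 Male Swiss albino mice (5–6 weeks, 23–27 g), eight per dose; synergist in corn oil given i.p. 1 h before i.p. insecticide or drug (drugs in distilled water). Lethality recorded over at least 6 h; controls received corn oil plus agent alone.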

[5] = test system: Wilson strain house flies; assay type: in vivo, house fly (susceptible Wilson strain)
Outline: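 Flies held at room temperature in glass jars coated with acetone-deposited insecticide film, alone or with synergist at 5:1 synergist:insecticide by weight; 10% sugar supplied.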

[6] = test system: German male cockroaches (Blatella Germanicus); assay: topical application to thorax, 24 hour mortality of German male cockroaches; assay type: in vivo, German cockroach (Blatella Germanicus)
Experimental: The synergistic effect with mobam of synergist compounds I-B, II-H, II-K and IV-C is further illustrated by the 24 hour mortality data of German male cockroaches (Blatella Germanicus) shown in Table XXXX. The synergists and insecticide were diluted in acetone and applied in small droplets to the thorax of the insect. These doses of synergist alone gave zero percent insect mortality.
The synergistic effect with GS 13005 of compounds I-B, II-H, II-K, II-P, II-Q, II-R and IV-C is illustrated by the 24 hour mortality of German male cockroaches shown in Table XXXXI. These doses of synergist alone caused zero percent insect mortality.

[7] = test system: mice; assay: extension of Secobarbital sleeping time by synergists; assay type: in vivo, Swiss albino white male mice; settings: Secobarbital 37 mg/K; for Relative Sleeping Time: treated/control
Outline: (§4)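 Swiss albino male mice (~38 days, 25-30 g) given synergist at 74.0 or 110.0 mg/kg in corn oil 1 h before Secobarbital 37.0 mg/kg or Noludar 110.0 mg/kg in water. Sleeping time measured from drug dosing to righting-reflex recovery; relative sleeping time = treated ÷ drug-only control.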

[8] = test system: mice; assay: extension of Noludar sleeping time by synergists; assay type: in vivo, Swiss albino white male mice; settings: Noludar 110 mg/K, synergist 110 mg/K; for Relative Sleeping Time: treated/control
Outline: as §4

[9] = synergist alone at doses of Table XXXX
[10] = synergist alone at doses of Table XXXXI
[11] = Dimetilan 8 mg/kg + synergist 80 mg/kg ip, of eight mice
[12] = Dimetilan 8 mg/kg + synergist 240 mg/kg ip, of eight mice
[13] = GS 13005 71 mg/kg + synergist 213 mg/kg

SMILES | insect mortality, synergist alone [6, 9] | insect mortality, synergist alone [6, 10] | Mean Sleeping Time ([7]; synergist 74 mg/K) | Relative Sleeping Time ([7]; synergist 74 mg/K) | Mean Sleeping Time ([7]; synergist 110 mg/K) | Relative Sleeping Time ([7]; synergist 110 mg/K) | Mean Sleeping Time [8] | Relative Sleeping Time [8] | number of mice dead [4, 11] | number of mice dead [4, 12] | number of mice dead [3] | mice lethality (number dead) [4, 13] | further results
Cc1cc(OC(=O)N(C)C)nn1C(=O)N(C)C [Dimetilan, 1-(dimethylcarbamoyl)-5-methyl-3-pyrazolyl dimethylcarbamate] | – | – | – | – | – | – | – | – | – | – | – | – | mortality at 2 µg/fly [1]: 10 to 40%; 24 hour percent mortality ([2]; Dimetilan alone 0.031 μg/fly): 0%; 24 hour percent mortality ([2]; Dimetilan alone 0.063 μg/fly): 17%; 24 hour percent mortality ([2]; Dimetilan alone 0.13 μg/fly): 43%; 24 hour percent mortality ([2]; Dimetilan alone 0.25 μg/fly): 100%; Lethality (number of mice dead) ([3]; Dimetilan alone 4.0 mg/kg ip): 0; Lethality (number of mice dead) ([3]; Dimetilan alone 8.0 mg/kg ip): 0; Lethality (number of mice dead) ([3]; Dimetilan alone 12.0 mg/kg ip): 1; Lethality (number of mice dead) ([3]; Dimetilan alone 16.0 mg/kg ip): 3; Lethality (number of mice dead) ([3]; Dimetilan alone 20.0 mg/kg ip): 4; Lethality (number of mice dead) ([3]; Dimetilan alone 24.0 mg/kg ip): 7; Lethality (number of mice dead) ([3]; Dimetilan alone 28.0 mg/kg ip): 8; Lethality (number of mice dead) ([3]; Dimetilan alone 32.0 mg/kg ip): 8; dose level just below that at which Dimetilan alone showed lethality ([3]; mice, ip): 8 mg/kg; number of mice dead ([4]; control: Dimetilan 8 mg/kg with 0.1 ml oil, 80 mg/kg): 0; number of mice dead ([4]; control: Dimetilan 8 mg/kg with 0.1 ml oil, 240 mg/kg): 0
C#CCON=Cc1cccc([N+](=O)[O-])c1 [I-B] | zero | zero | 54 min | 1.5 | 106 min | 1.7 | 70 min | 2.4 | 1 | 6 | – | – | Contact Synergistic Ratio, Carbaryl (LC50 insecticide alone / LC50 with synergist) ([5]; in vivo): 270; Contact Synergistic Ratio, Pyrolan (LC50 insecticide alone / LC50 with synergist) ([5]; pyrolan, synergist to insecticide 5:1 by weight, 24 h): 35
C#CCOCc1ccccc1[N+](=O)[O-] [II-P, 2-nitrobenzyl 2-propynyl ether] | – | zero | – | – | 46 min | 1.0 | 44 min | 1.5 | – | 0 | 2 | 6 | mice lethality (number dead) ([4]; Methadone 32 mg/kg + synergist 215 mg/kg): 0; mice lethality (number dead) ([4]; Secobarbital 90 mg/kg + synergist 215 mg/kg): 0
C#CCOCc1ccc([N+](=O)[O-])cc1 [II-Q, 4-nitrobenzyl 2-propynyl ether] | – | zero | 30 min | 1.1 | 73 min | 1.6 | 41 min | 2.1 | – | 1 | 7 | 6 | –
C#CCOCc1cccc2ccccc12 [II-R, α-naphthylmethyl 2-propynyl ether] | – | zero | 35 min | 1.2 | 96 min | 1.6 | 49 min | 1.7 | 0 | 2 | – | – | –
C#CCOC(c1ccc(Cl)cc1)C(C)[N+](=O)[O-] (centres unmarked) [IV-C] | zero | zero | 112 min | 4.7 | – | – | 74 min | 2.5 | 5 | 7 | – | – | –

Source: patent US4020111A, “Propynyloxy alkyl arene insecticides” (priority 1975, dated 1977)
